Assay results reported in patent publication US7714135B2, “Tetrahydropyridothiophenes for the treatment of proliferative diseases such as cancer” (4SC AG, priority 2005, dated 2010).

How the values were obtained:
[1] = test system: RKO (RKOp27) human colon adenocarcinoma cells; experiment: Alamar Blue cell viability assay, anti-proliferative/cytotoxic activity on proliferating (uninduced) RKOp27 cells; format: cell-based; details: RKOp27 subclone without inducer, 72 hours incubation, read-out: IC50 RKO p27 uninduced (proliferating)
Protocol: The anti-proliferative/cytotoxic activity of the compounds described herein, can be tested on subclones of RKO (RKOp27) human colon adenocarcinoma cells (Schmidt et al., Oncogene 19, 2423-2429; 2000) using the Alamar Blue cell viability assay (described in O'Brien et al. Eur J Biochem 267, 5421-5426, 2000). The compounds are dissolved as 20 mM solutions in dimethylsulfoxide (DMSO) and subsequently diluted in semi-logarithmic steps. DMSO dilutions are further diluted 1:100 into Dulbecco's modified Eagle's medium (DMEM) containing 10% fetal calf serum to a final concentration twice as much as the final concentration in the test. RKO subclones are seeded into 96 well flat bottom plates at a density of 4000 cells per well in a volume of 50 μl per well. 24 hours after seeding the 50 μl each of the compound dilutions in DMEM medium are added into each well of the 96 Well plate. Each compound dilution is tested as quadruplicates. Wells containing untreated control cells are filled with 50 μl DMEM medium containing 1% DMSO. The cells are then incubated with the substances for 72 hours at 37° C. in a humidified atmosphere containing 5% carbon dioxide. To determine the viability of the cells, 10 μl of an Alamar Blue solution (Biosource) are added and the fluorescence is measured at an extinction of 544 nm and an emission of 590 nm. For the calculation of the cell viability the emission value from untreated cells is set as 100% viability and the emission rates of treated cells are set in relation to the values of untreated cells. Viabilities are expressed as % values.
The corresponding IC50 values of the compounds for anti-proliferative/cytotoxic activity are determined from the concentration-effect curves.
Representative IC50 values for anti-proliferation/cytotoxicity determined in the mentioned assay follow from the following table A, in which the numbers of the compound correspond to the numbers of the examples.

[2] = test system: RKO colon adenocarcinoma cells (RKOp27) arrested by the expression of ectopic p27Kip1; experiment: Alamar Blue cell viability assay on RKOp27 cells arrested by Ponasterone A-induced p27Kip1 expression (cell cycle specific mode of action); format: cell-based; details: Homo sapiens, RKOp27 subclone induced with 10 μM Ponasterone A, 72 hours incubation, read-out: IC50 RKO p27 induced (arrested)
Protocol: To determine the cell cycle specific mode of action, subclones of RKO colon adenocarcinoma cells (RKOp27 or RKOp21 as described by Schmidt et al. in Oncogene 19, 2423-2429; 2000) are seeded into 96 well flat bottom plates at a density of 16000 cells per well in a volume of 50 μl per well in DMEM growth medium with 10% FCS containing 10 μM Ponasterone A. 24 hours after seeding the 50 μl each of the compound dilutions in DMEM medium are added into each well of the 96 Well plate. Each compound dilution is tested as quadruplicates. Wells containing untreated control cells are filled with 50 μl DMEM medium containing 1% DMSO. The cells are then incubated with the substances for 72 hours at 37° C. in a humidified atmosphere containing 5% carbon dioxide. To determine the viability of the cells, 10 μl of an Alamar Blue solution (Biosource) are added and the fluorescence was measured at an extinction of 544 nm and an emission of 590 nm. For the calculation of the cell viability the emission value from untreated cells is set as 100% viability and the emission rates of treated cells are set in relation to the values of untreated cells. Viabilities are expressed as % values. Viability is compared of proliferating cells grown in the absence of the inducer Ponasterone A, versus viability of cells arrested by the expression of ectopic p27Kip1 induced by Ponasterone A.

IC50 [2] [nM] | SMILES | IC50 [1] [nM]
> 100000 | N#Cc1c(NC(=O)CCc2ccccc2)sc2c1CCN(C(=O)OCCN1CCOCC1)C2 [Example 50, 3-Cyano-2-(3-phenyl-propanoylamino)-4,7-dihydro-5H-thieno[2,3-c]pyridine-6-carboxylic acid 2-morpholin-4-yl-ethyl ester] | ≤ 300
> 100000 | CCOC(=O)N1CCc2c(sc(NC(=O)CC(C)c3cccnc3)c2C#N)C1 (racemic) [Example 49, 3-Cyano-2-((RS)-3-pyridin-3-yl-butanoylamino)-4,7-dihydro-5H-thieno[2,3-c]pyridine-6-carboxylic acid ethyl ester] | 300 to 2000
> 100000 | N#Cc1c(NC(=O)CCc2cccnc2)sc2c1CCN(C(=O)OCc1cccnc1)C2 [Example 39, 3-Cyano-2-(3-pyridin-3-yl-propanoylamino)-4,7-dihydro-5H-thieno[2,3-c]pyridine-6-carboxylic acid pyridin-3-ylmethyl ester] | 300 to 2000
> 100000 | N#Cc1c(NC(=O)CCc2ccco2)sc2c1CCN(C(=O)OCc1ccncc1)C2 [Example 44, 3-Cyano-2-(3-furan-2-yl-propanoylamino)-4,7-dihydro-5H-thieno[2,3-c]pyridine-6-carboxylic acid pyridin-4-ylmethyl ester] | ≤ 300
> 100000 | N#Cc1c(NC(=O)CCc2ccccc2)sc2c1CCN(C(=O)OCCn1ccnc1)C2 [Example 54, 3-Cyano-2-(3-phenyl-propanoylamino)-4,7-dihydro-5H-thieno[2,3-c]pyridine-6-carboxylic acid 2-imidazol-1-yl-ethyl ester] | ≤ 300
> 100000 | N#Cc1c(NC(=O)CCc2ccco2)sc2c1CCN(C(=O)OCc1cccnc1)C2 [Example 43, 3-Cyano-2-(3-furan-2-yl-propanoylamino)-4,7-dihydro-5H-thieno[2,3-c]pyridine-6-carboxylic acid pyridin-3-ylmethyl ester] | ≤ 300
≥ 40000 | CC(CC(=O)Nc1sc2c(c1C#N)CCN(C(=O)OCCc1ccncc1)C2)c1cccnc1 (racemic) [Example 76, 3-Cyano-2-((RS)-3-pyridin-3-yl-butanoylamino)-4,7-dihydro-5H-thieno[2,3-c]pyridine-6-carboxylic acid 2-pyridin-4-yl-ethyl ester] | 300 to 2000
> 100000 | N#Cc1c(NC(=O)CCc2cccnc2)sc2c1CCN(C(=O)OCCc1ccccn1)C2 [Example 46, 3-Cyano-2-(3-pyridin-3-yl-propanoylamino)-4,7-dihydro-5H-thieno[2,3-c]pyridine-6-carboxylic acid 2-pyridin-2-yl-ethyl ester] | 300 to 2000
> 100000 | CC(CC(=O)Nc1sc2c(c1C#N)CCN(C(=O)OCCn1ccnc1)C2)c1ccccc1 (racemic) [Example 96, 3-Cyano-2-((RS)-3-phenyl-butanoylamino)-4,7-dihydro-5H-thieno[2,3-c]pyridine-6-carboxylic acid 2-imidazol-1-yl-ethyl ester] | ≤ 300

More lines, now with the values behind:

SMILES | IC50 [2] [nM] | IC50 [1] [nM]
CCOC(=O)N1CCc2c(sc(NC(=O)CCc3cncnc3)c2C#N)C1 [Example 35, 3-Cyano-2-(3-pyrimidin-5-yl-propanoylamino)-4,7-dihydro-5H-thieno[2,3-c]pyridine-6-carboxylic acid ethyl ester] | ≥ 40000 | 300 to 2000
CCOC(=O)N1CCc2c(sc(NC(=O)CCc3ccc(C)cc3)c2C#N)C1 [Example 14, 3-Cyano-2-(3-p-tolyl-propanoylamino)-4,7-dihydro-5H-thieno[2,3-c]pyridine-6-carboxylic acid ethyl ester] | > 100000 | ≤ 300
CCOC(=O)N1CCc2c(sc(NC(=O)CCc3cccc(F)c3)c2C#N)C1 [Example 12, 3-Cyano-2-[3-(3-fluoro-phenyl)-propanoylamino]-4,7-dihydro-5H-thieno[2,3-c]pyridine-6-carboxylic acid ethyl ester] | > 100000 | ≤ 300
CCOC(=O)N1CCc2c(sc(NC(=O)C3CC3c3ccccc3)c2C#N)C1 (stereo not drawn) [Example 2, 3-Cyano-2-{[1-(2-phenyl-cyclopropyl)-methanoyl]-amino}-4,7-dihydro-5H-thieno[2,3-c]pyridine-6-carboxylic acid ethyl ester] | > 100000 | ≤ 300
CC1(C)OCC(COC(=O)N2CCc3c(sc(NC(=O)CCc4ccccc4)c3C#N)C2)O1 (stereo not drawn) [Example 30, 3-Cyano-2-(3-phenyl-propanoylamino)-4,7-dihydro-5H-thieno[2,3-c]pyridine-6-carboxylic acid 2,2-dimethyl-[1,3]dioxolan-4-ylmethyl ester] | > 100000 | ≤ 300
N#Cc1c(NC(=O)CCc2ccccc2)sc2c1CCN(C(=O)OCC(O)CO)C2 (stereo not drawn) [Example 31, 3-Cyano-2-(3-phenyl-propanoylamino)-4,7-dihydro-5H-thieno[2,3-c]pyridine-6-carboxylic acid 2,3-dihydroxy-propyl ester] | > 100000 | ≤ 300
N#Cc1c(NC(=O)CCc2ccccc2)sc2c1CCN(C(=O)OCc1ccncc1)C2 [Example 29, 3-Cyano-2-(3-phenyl-propanoylamino)-4,7-dihydro-5H-thieno[2,3-c]pyridine-6-carboxylic acid pyridin-4-ylmethyl ester] | > 100000 | ≤ 300
CCOC(=O)N1CCc2c(sc(NC(=O)CCc3ccco3)c2C#N)C1 [Example 5, 3-Cyano-2-(3-furan-2-yl-propanoylamino)-4,7-dihydro-5H-thieno[2,3-c]pyridine-6-carboxylic acid ethyl ester] | > 100000 | ≤ 300
COCCOC(=O)N1CCc2c(sc(NC(=O)CCc3ccccc3)c2C#N)C1 [Example 24, 3-Cyano-2-(3-phenyl-propanoylamino)-4,7-dihydro-5H-thieno[2,3-c]pyridine-6-carboxylic acid 2-methoxy-ethyl ester] | > 100000 | ≤ 300
CCOC(=O)N1CCc2c(sc(NC(=O)CCC3CCCCC3)c2C#N)C1 [Example 19, 3-Cyano-2-(3-cyclohexyl-propanoylamino)-4,7-dihydro-5H-thieno[2,3-c]pyridine-6-carboxylic acid ethyl ester] | > 100000 | 300 to 2000
CCOC(=O)N1CCc2c(sc(NC(=O)CCc3cccc4c3OCO4)c2C#N)C1 [Example 32, 2-(3-Benzo[1,3]dioxol-4-yl-propanoylamino)-3-cyano-4,7-dihydro-5H-thieno[2,3-c]pyridine-6-carboxylic acid ethyl ester] | > 100000 | ≤ 300
CCOC(=O)N1CCc2c(sc(NC(=O)CCc3cccc4c3OCCO4)c2C#N)C1 [Example 34, 3-Cyano-2-(3-2,3-dihydro-benzo[1,4]dioxin-5-yl-propanoylamino)-4,7-dihydro-5H-thieno[2,3-c]pyridine-6-carboxylic acid ethyl ester] | > 100000 | 300 to 2000
CCOC(=O)N1CCc2c(sc(NC(=O)CCc3cc(C)c(C)o3)c2C#N)C1 [Example 11, 3-Cyano-2-[3-(4,5-dimethyl-furan-2-yl)-propanoylamino]-4,7-dihydro-5H-thieno[2,3-c]pyridine-6-carboxylic acid ethyl ester] | > 100000 | ≤ 300
CCOC(=O)N1CCc2c(sc(NC(=O)CCc3ccccc3Br)c2C#N)C1 [Example 23, 2-[3-(2-Bromo-phenyl)-propanoylamino]-3-cyano-4,7-dihydro-5H-thieno[2,3-c]pyridine-6-carboxylic acid ethyl ester] | > 100000 | ≤ 300
N#Cc1c(NC(=O)CCc2ccccc2)sc2c1CCN(C(=O)OCCc1ccccn1)C2 [Example 26, 3-Cyano-2-(3-phenyl-propanoylamino)-4,7-dihydro-5H-thieno[2,3-c]pyridine-6-carboxylic acid 2-pyridin-2-yl-ethyl ester] | > 100000 | ≤ 300
